Experimental data from patent US9315490B2, “2,5-substituted pyrimidines” (Grünenthal GmbH, priority 2014, dated 2016).

How the values were obtained:
human PDE4B1 = target: T1, human PDE4B1 (Homo sapiens, UniProt Q07343); test: TR-FRET assay using the LANCE Ultra cAMP kit to determine the activity of hPDE4B1; type: biochemical; details: read-out: Inhibition in % (inhibition of PDE4B); for inhibition at 10 µM: test concentration 10 μM (marked in cell); for inhibition at 1 µM: test concentration 1 μM
T1 construct: host or cells: Sf9 cells
T1 sequence (Q07343 whole entry): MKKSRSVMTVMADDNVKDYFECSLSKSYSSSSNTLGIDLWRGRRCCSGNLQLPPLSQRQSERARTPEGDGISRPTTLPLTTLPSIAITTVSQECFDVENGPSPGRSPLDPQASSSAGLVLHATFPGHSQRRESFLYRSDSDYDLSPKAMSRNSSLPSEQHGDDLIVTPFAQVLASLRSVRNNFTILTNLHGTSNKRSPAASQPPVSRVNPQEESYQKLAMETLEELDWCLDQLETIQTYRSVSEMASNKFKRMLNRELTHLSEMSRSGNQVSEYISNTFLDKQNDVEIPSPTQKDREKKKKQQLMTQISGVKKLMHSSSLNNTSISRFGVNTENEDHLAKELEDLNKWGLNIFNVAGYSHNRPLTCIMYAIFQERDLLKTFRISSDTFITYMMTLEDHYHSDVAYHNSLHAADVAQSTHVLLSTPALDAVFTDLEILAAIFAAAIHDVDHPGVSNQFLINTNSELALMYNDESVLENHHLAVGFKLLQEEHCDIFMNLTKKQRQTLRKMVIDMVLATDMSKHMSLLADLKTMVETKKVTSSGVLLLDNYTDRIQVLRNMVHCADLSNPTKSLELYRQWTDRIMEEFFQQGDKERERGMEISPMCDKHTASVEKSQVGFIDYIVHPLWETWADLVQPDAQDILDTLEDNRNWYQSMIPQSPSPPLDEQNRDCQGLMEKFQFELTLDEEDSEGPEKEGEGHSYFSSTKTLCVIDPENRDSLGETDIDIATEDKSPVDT
In short: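 Sf9-expressed recombinant human PDE4B1 (0.96 U) hydrolyses 500 nM cAMP for 30 minutes at room temperature in 50 mM Tris-HCl, 50 mM MgCl2, 5 mM DTT, pH 8.5. The reaction is stopped with IBMX, and residual cAMP is measured by TR-FRET (665/620 ratio). IC50 comes from ten concentrations.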

SMILES: CC(C)c1ccnc(-c2cnc(-n3cc([S+](C)[O-])c4ccc(C(=O)N5CC[C@@H](N)C5)cc43)nc2)c1 (stereo partly drawn) [Example 338, ((R)-3-Aminopyrrolidin-1-yl)(1-(5-(4-isopropylpyridin-2-yl)pyrimidin-2-yl)-3-(methylsulfinyl)-1H-indol-6-yl)methanone]
- melting point: 264 to 268 °C
- inhibition at 10 µM (human PDE4B1): 99%

SMILES: C[S+]([O-])c1cn(-c2ncc(-c3cc(C4CC4)ccn3)cn2)c2cc(C(=O)N3CC[C@@H](N)C3)ccc12 (stereo partly drawn) [Example 339, ((R)-3-Aminopyrrolidin-1-yl)(1-(5-(4-cyclopropylpyridin-2-yl)pyrimidin-2-yl)-3-(methylsulfinyl)-1H-indol-6-yl)methanone]
- melting point: 278 to 281 °C
- inhibition at 10 µM (human PDE4B1): 105%

SMILES: Cc1ccnc(-c2cnc(-n3cc(S(C)(=O)=O)c4ccc(C(=O)N5CC[C@@H](N)C5)cc43)nc2)c1 [Example 340, (R)-(3-Aminopyrrolidin-1-yl)(1-(5-(4-methylpyridin-2-yl)pyrimidin-2-yl)-3-(methylsulfonyl)-1H-indol-6-yl)methanone]
- melting point: 157 to 160 °C
- inhibition at 10 µM (human PDE4B1): 100%

SMILES: CNCCN(C)C(=O)c1ccc2c([S+](C)[O-])cn(-c3ncc(-c4ccccc4F)cn3)c2c1 (centres unmarked) [Example 346, 1-(5-(2-Fluorophenyl)pyrimidin-2-yl)-N-methyl-N-(2-(methylamino)ethyl)-3-(methylsulfinyl)-1H-indole-6-carboxamide]
- melting point: 122 to 126 °C
- inhibition at 1 µM (human PDE4B1): 87%

SMILES: C[S+]([O-])c1cn(-c2ncc(-c3ccccc3F)cn2)c2cc(C(=O)N3CC4CCC3CN4)ccc12 (centres unmarked) [Example 347, 2,5-Diazabicyclo[2.2.2]octan-2-yl(1-(5-(2-fluorophenyl)pyrimidin-2-yl)-3-(methylsulfinyl)-1H-indol-6-yl)methanone]
- melting point: 141 to 144 °C
- inhibition at 10 µM (human PDE4B1): 97%

SMILES: C[S+]([O-])c1cn(-c2ncc(-c3ccccc3F)cn2)c2cc(C(=O)N3C4CCC3CNC4)ccc12 (centres unmarked) [Example 348, 3,8-Diazabicyclo[3.2.1]octan-8-yl(1-(5-(2-fluorophenyl)pyrimidin-2-yl)-3-(methylsulfinyl)-1H-indol-6-yl)methanone]
- melting point: 237 to 240 °C
- inhibition at 1 µM (human PDE4B1): 99%

SMILES: O=C(c1ccc2c(C3CC3)cn(-c3ncc(-c4ccccc4F)cn3)c2c1)N1CCOCC1 [Example 354, (3-Cyclopropyl-1-(5-(2-fluorophenyl)pyrimidin-2-yl)-1H-indol-6-yl)(morpholino) methanone]
- melting point: 177 to 181 °C
- inhibition at 1 µM (human PDE4B1): 71%
